How the values were obtained:
[1] = Example 7B: open-label multiple-dose escalation pharmacokinetic study of modified-release tablet, fasted or fed healthy subjects; assay type: in vivo, human
Method: B. A second open-label, non-randomized pharmacokinetic study was conducted in healthy subjects. Fasted (cohort 1; n=19) or fed state (cohort 2, n=18) subjects received a modified-release tablet formulation of Compound 1 in a dose escalation sequence over 25 days (once daily dosing started at 0.06 mg and was slowly titrated, depending upon individual subject tolerability, by additional 0.06 mg dose increments every 5 days up to 0.3 mg once daily).
Each subject received a once daily dose of the modified-release Compound 1 for 5 days, with up to four sequential dose escalations every 5 days: • Regimen A (0.06 mg modified-release Compound 1): 1×0.06 mg Compound 1 modified-release tablet for 5 days • Regimen B (0.12 mg modified-release Compound 1): 2×0.06 mg Compound 1 modified-release tablet for 5 days • Regimen C (0.18 mg modified-release Compound 1): 3×0.06 mg Compound 1 modified-release tablet for 5 days • Regimen D (0.24 mg modified-release Compound 1): 4×0.06 mg Compound 1 modified-release tablet for 5 days • Regimen E (0.30 mg modified-release Compound 1): 5×0.06 mg Compound 1 modified-release tablet for 5 days

[2] = Release (dissolution) profile of capsules, USP Apparatus 2 (paddle) at 50 rpm, 500 mL aqueous sodium phosphate 0.05 M, pH 6.8; assay type: physicochemical; details: for Release rate (percentage of Compound 1 released): Table 3b; for mean value (n =4) of % of Compound 1 released: Table 3g-1, Storage Time = 0; for mean value (n =4) of % of Compound 1 released / mean value (n = 41) of % of Compound 1 released: size 4 capsule 0.5 mg Compound 1, Poloxamer 188:food grade GMS 70:30; for mean value (n = 41) of % of Compound 1 released: Table 3g-2 first line (title: Storage Time = 2 weeks; values equal Table 3g-1)
Text: USP Apparatus 2 (Paddle Apparatus) is described, for example, in the United States Pharmacopeial Convention, Feb. 1, 2012, Chapter <711> (“Dissolution”), incorporated by reference herein in its entirety. See http://www.usp.org/sites/default/files/usp_pdf/EN/USPNF/revisions/m99470-gc_711.pdf. The assembly from Apparatus 1 is used, except that a paddle formed from a blade and a shaft is used as the stirring element. The shaft is positioned so that its axis is not more than 2 mm from the vertical axis of the vessel at any point and rotates smoothly without significant wobble that could affect the results. The vertical center line of the blade passes through the axis of the shaft so that the bottom of the blade is flush with the bottom of the shaft. A distance of 25±2 mm between the bottom of the blade and the inside bottom of the vessel is maintained during the test. The metallic or suitably inert, rigid blade and shaft comprise a single entity. A suitable two-part detachable design may be used provided the assembly remains firmly engaged during the test. The paddle blade and shaft may be coated with a suitable coating so as to make them inert. The dosage unit is allowed to sink to the bottom of the vessel before rotation of the blade is started. A small, loose piece of nonreactive material, such as not more than a few turns of wire helix, may be attached to dosage units that would otherwise float. Other validated sinker devices may be used.
Unless otherwise specified, the release profiles for capsules were measured using USP Apparatus 2 (paddle).
All release profiles disclosed in Tables 3c-3p were measured with USP Apparatus 2 (paddle) at 50 rpm in 500 mL of aqueous sodium phosphate at a concentration of 0.05 M (pH=6.8). The values in a given table relate to capsules obtained from the same batch. Values shown represent mean values over a number of dissolution tests (“n” in each table) in each case.

- Exposure in the fed and fasted states ([1]; after single administration and at steady state): similar
- increase of Cmax at steady state, female vs male subjects ([1]; modified-release tablet): greater than 42%
- mean plasma exposure measures, females compared to males ([1]; modified-release tablet once daily): Somewhat higher
- peak-trough fluctuation ([1]; modified-release tablet once daily, across dose levels): low peak-trough fluctuation
- Tmax, fed state ([1]; modified-release tablet, fed vs fasted): delayed in the fed state
- change of release rate after storage ([2]; 0.04 mg Compound 1 in Gelucire 50/13, storage at 40° C. and 75% RH for two weeks (FIG. 5)): rapid increase in release rate
- Release rate (percentage of Compound 1 released) ([2]; capsule 0.04 mg Compound 1, Poloxamer 188:food grade GMS 50:50, 1 wk storage (40° C.), 30 min): 11.1%
- Release rate (percentage of Compound 1 released) ([2]; capsule 0.04 mg Compound 1, Poloxamer 188:food grade GMS 50:50, 1 wk storage (40° C.), 60 min): 22.6%
- Release rate (percentage of Compound 1 released) ([2]; capsule 0.04 mg Compound 1, Poloxamer 188:food grade GMS 50:50, 1 wk storage (40° C.), 120 min): 40.1%
- Release rate (percentage of Compound 1 released) ([2]; capsule 0.04 mg Compound 1, Poloxamer 188:food grade GMS 50:50, 1 wk storage (40° C.), 180 min): 59.7%
- Release rate (percentage of Compound 1 released) ([2]; capsule 0.04 mg Compound 1, Poloxamer 188:food grade GMS 50:50, 1 wk storage (40° C.), 240 min): 71.8%
- Release rate (percentage of Compound 1 released) ([2]; capsule 0.04 mg Compound 1, Poloxamer 188:food grade GMS 50:50, 1 wk storage (40° C.), 360 min): 88.4%
- Release rate (percentage of Compound 1 released) ([2]; capsule 0.04 mg Compound 1, Poloxamer 188:food grade GMS 50:50, 1 wk storage (40° C.), 480 min): 92.2%
- Release rate (percentage of Compound 1 released) ([2]; capsule 0.04 mg Compound 1, Poloxamer 188:food grade GMS 50:50, 1 wk storage (40° C.), 600 min): 96.7%
- Release rate (percentage of Compound 1 released) ([2]; capsule 0.04 mg Compound 1, Poloxamer 188:food grade GMS 50:50, 1 wk storage (40° C.), 720 min): 95.3%
- Release rate (percentage of Compound 1 released) ([2]; capsule 0.04 mg Compound 1, Poloxamer 188:food grade GMS 50:50, 1 wk storage (40° C.), 735 min): 96.1%
- Release rate (percentage of Compound 1 released) ([2]; capsule 0.04 mg Compound 1, Poloxamer 188:food grade GMS 50:50, 2 wks storage (40° C.), 30 min): 10.8%
- Release rate (percentage of Compound 1 released) ([2]; capsule 0.04 mg Compound 1, Poloxamer 188:food grade GMS 50:50, 2 wks storage (40° C.), 60 min): 18.3%
- Release rate (percentage of Compound 1 released) ([2]; capsule 0.04 mg Compound 1, Poloxamer 188:food grade GMS 50:50, 2 wks storage (40° C.), 120 min): 36.8%
- Release rate (percentage of Compound 1 released) ([2]; capsule 0.04 mg Compound 1, Poloxamer 188:food grade GMS 50:50, 2 wks storage (40° C.), 180 min): 52.9%
- Release rate (percentage of Compound 1 released) ([2]; capsule 0.04 mg Compound 1, Poloxamer 188:food grade GMS 50:50, 2 wks storage (40° C.), 240 min): 67.4%
- Release rate (percentage of Compound 1 released) ([2]; capsule 0.04 mg Compound 1, Poloxamer 188:food grade GMS 50:50, 2 wks storage (40° C.), 360 min): 83.3%
- Release rate (percentage of Compound 1 released) ([2]; capsule 0.04 mg Compound 1, Poloxamer 188:food grade GMS 50:50, 2 wks storage (40° C.), 480 min): 90.3%
- Release rate (percentage of Compound 1 released) ([2]; capsule 0.04 mg Compound 1, Poloxamer 188:food grade GMS 50:50, 2 wks storage (40° C.), 600 min): 93.8%
- Release rate (percentage of Compound 1 released) ([2]; capsule 0.04 mg Compound 1, Poloxamer 188:food grade GMS 50:50, 2 wks storage (40° C.), 720 min): 93.7%
- Release rate (percentage of Compound 1 released) ([2]; capsule 0.04 mg Compound 1, Poloxamer 188:food grade GMS 50:50, 2 wks storage (40° C.), 735 min): 94.3%
- Release rate (percentage of Compound 1 released) ([2]; capsule 0.04 mg Compound 1, Poloxamer 188:food grade GMS 50:50, 4 wks storage (40° C.), 30 min): 7.3%
- Release rate (percentage of Compound 1 released) ([2]; capsule 0.04 mg Compound 1, Poloxamer 188:food grade GMS 50:50, 4 wks storage (40° C.), 60 min): 17.7%
- Release rate (percentage of Compound 1 released) ([2]; capsule 0.04 mg Compound 1, Poloxamer 188:food grade GMS 50:50, 4 wks storage (40° C.), 120 min): 37.4%
- Release rate (percentage of Compound 1 released) ([2]; capsule 0.04 mg Compound 1, Poloxamer 188:food grade GMS 50:50, 4 wks storage (40° C.), 180 min): 54.6%
- Release rate (percentage of Compound 1 released) ([2]; capsule 0.04 mg Compound 1, Poloxamer 188:food grade GMS 50:50, 4 wks storage (40° C.), 240 min): 70.3%
- Release rate (percentage of Compound 1 released) ([2]; capsule 0.04 mg Compound 1, Poloxamer 188:food grade GMS 50:50, 4 wks storage (40° C.), 360 min): 87.5%
- Release rate (percentage of Compound 1 released) ([2]; capsule 0.04 mg Compound 1, Poloxamer 188:food grade GMS 50:50, 4 wks storage (40° C.), 480 min): 90.9%
- Release rate (percentage of Compound 1 released) ([2]; capsule 0.04 mg Compound 1, Poloxamer 188:food grade GMS 50:50, 4 wks storage (40° C.), 600 min): 93.2%
- Release rate (percentage of Compound 1 released) ([2]; capsule 0.04 mg Compound 1, Poloxamer 188:food grade GMS 50:50, 4 wks storage (40° C.), 720 min): 95.0%
- Release rate (percentage of Compound 1 released) ([2]; capsule 0.04 mg Compound 1, Poloxamer 188:food grade GMS 50:50, 4 wks storage (40° C.), 735 min): 94.3%
- Release rate (percentage of Compound 1 released) ([2]; capsule 0.04 mg Compound 1, Poloxamer 188:food grade GMS 50:50, 18 hrs curing (50° C.), 30 min): 14.3%
- Release rate (percentage of Compound 1 released) ([2]; capsule 0.04 mg Compound 1, Poloxamer 188:food grade GMS 50:50, 18 hrs curing (50° C.), 60 min): 21.8%
- Release rate (percentage of Compound 1 released) ([2]; capsule 0.04 mg Compound 1, Poloxamer 188:food grade GMS 50:50, 18 hrs curing (50° C.), 120 min): 39.9%
- Release rate (percentage of Compound 1 released) ([2]; capsule 0.04 mg Compound 1, Poloxamer 188:food grade GMS 50:50, 18 hrs curing (50° C.), 180 min): 56.3%
- Release rate (percentage of Compound 1 released) ([2]; capsule 0.04 mg Compound 1, Poloxamer 188:food grade GMS 50:50, 18 hrs curing (50° C.), 240 min): 72.6%
- Release rate (percentage of Compound 1 released) ([2]; capsule 0.04 mg Compound 1, Poloxamer 188:food grade GMS 50:50, 18 hrs curing (50° C.), 360 min): 89.2%
- Release rate (percentage of Compound 1 released) ([2]; capsule 0.04 mg Compound 1, Poloxamer 188:food grade GMS 50:50, 18 hrs curing (50° C.), 480 min): 93.5%
- Release rate (percentage of Compound 1 released) ([2]; capsule 0.04 mg Compound 1, Poloxamer 188:food grade GMS 50:50, 18 hrs curing (50° C.), 600 min): 95.7%
- Release rate (percentage of Compound 1 released) ([2]; capsule 0.04 mg Compound 1, Poloxamer 188:food grade GMS 50:50, 18 hrs curing (50° C.), 720 min): 96.9%
- Release rate (percentage of Compound 1 released) ([2]; capsule 0.04 mg Compound 1, Poloxamer 188:food grade GMS 50:50, 18 hrs curing (50° C.), 735 min): 95.6%
- Release rate (percentage of Compound 1 released) ([2]; capsule 0.04 mg Compound 1, Poloxamer 188:food grade GMS 50:50, T = 0 (pre-curing), 30 min): 11.0%
- Release rate (percentage of Compound 1 released) ([2]; capsule 0.04 mg Compound 1, Poloxamer 188:food grade GMS 50:50, T = 0 (pre-curing), 60 min): 18.3%
- Release rate (percentage of Compound 1 released) ([2]; capsule 0.04 mg Compound 1, Poloxamer 188:food grade GMS 50:50, T = 0 (pre-curing), 120 min): 30.1%
- Release rate (percentage of Compound 1 released) ([2]; capsule 0.04 mg Compound 1, Poloxamer 188:food grade GMS 50:50, T = 0 (pre-curing), 180 min): 39.6%
- Release rate (percentage of Compound 1 released) ([2]; capsule 0.04 mg Compound 1, Poloxamer 188:food grade GMS 50:50, T = 0 (pre-curing), 240 min): 48.8%
- Release rate (percentage of Compound 1 released) ([2]; capsule 0.04 mg Compound 1, Poloxamer 188:food grade GMS 50:50, T = 0 (pre-curing), 360 min): 64.1%
- Release rate (percentage of Compound 1 released) ([2]; capsule 0.04 mg Compound 1, Poloxamer 188:food grade GMS 50:50, T = 0 (pre-curing), 480 min): 72.7%
- Release rate (percentage of Compound 1 released) ([2]; capsule 0.04 mg Compound 1, Poloxamer 188:food grade GMS 50:50, T = 0 (pre-curing), 600 min): 79.8%
- Release rate (percentage of Compound 1 released) ([2]; capsule 0.04 mg Compound 1, Poloxamer 188:food grade GMS 50:50, T = 0 (pre-curing), 720 min): 83.1%
- Release rate (percentage of Compound 1 released) ([2]; capsule 0.04 mg Compound 1, Poloxamer 188:food grade GMS 50:50, T = 0 (pre-curing), 735 min): 84.6%
- mean value (n =4) of % of Compound 1 released ([2]; 30 min): 33.0%
- mean value (n =4) of % of Compound 1 released ([2]; 45 min): 64.2%
- mean value (n =4) of % of Compound 1 released ([2]; 60 min): 86.0%
- mean value (n = 41) of % of Compound 1 released ([2]; 30 min): 33.0%
- mean value (n = 41) of % of Compound 1 released ([2]; 45 min): 64.2%
- mean value (n = 41) of % of Compound 1 released ([2]; 60 min): 86.0%
- release profile after curing and storage ([2]; capsule 0.04 mg Compound 1, Poloxamer 188:food grade GMS 50:50, cured 18 hours, one, two and four weeks post-curing (FIG. 6)): remained substantially the same
SMILES: O=C(O)COC[C@H]1CC[C@H](COC(=O)N(c2ccccc2)c2ccc(Cl)cc2)CC1 [Compound 1, 2-(((1r,4r)-4-(((4-chlorophenyl)(phenyl)carbamoyloxy)methyl)cyclohexyl)methoxy)acetic acid]
- stabilisation of release profile by curing ([2]; capsule with research grade GMS (lower monoester content) instead of food grade GMS): curing was not as effective in stabilizing the release profile
- release rate relative to immediate-release composition ([2]; capsules 0.5 mg Compound 1, Poloxamer 188:food grade GMS 70:30, 50:50 and 30:70 (FIGS. 8-10)): slower rate than the immediate-release composition
